Laboratory results taken from the NIST ThermoML archive (doi:10.1021/je700123q).
Numbers after ± are expanded uncertainties.

Experiments:
[1] = xn = mol fraction of the nth substance listed; conditions: Liquid
[2] = Liquid; for Critical pressure: Direct measurement; for Critical temperature: Visual observation in an unstirred cell

Work on `FC(OC(F)(F)F)C(F)(F)F` (stereo not drawn) [1,1,1,2-tetrafluoro-2-(trifluoromethoxy)ethane] + COC(F)(F)C(F)(F)F yielded a Critical density ([1]; x1 = 0.1694) of 510 ± 6 kg/m3, a Critical density ([1]; x1 = 0.2941) of 521 ± 6 kg/m3 and a Critical density ([1]; x1 = 0.4706) of 536 ± 6 kg/m3. It also gave a Critical density ([1]; x1 = 0.6565) of 554 ± 6 kg/m3, a Critical density ([1]; x1 = 0.7952) of 566 ± 7 kg/m3 and a Critical density ([1]; x1 = 1) of 580 ± 7 kg/m3.
Work on `COC(F)(F)F` [trifluoromethoxymethane] yielded a Critical density [2] of 459 ± 5 kg/m3, a Critical pressure [2] of 3640 ± 6 kPa and a Critical temperature [2] of 377.92 ± 0.06 K.
In the case of `COC(F)(F)F` [trifluoromethoxymethane] + FC(OC(F)(F)F)C(F)(F)F, the Critical density ([1]; x2 = 0) is reported as 459 ± 5 kg/m3.
`FC(OC(F)(F)F)C(F)(F)F` (stereo not drawn) [1,1,1,2-tetrafluoro-2-(trifluoromethoxy)ethane] + COC(F)(F)F showed a Critical density ([1]; x1 = 0.1455) of 480 ± 6 kg/m3, a Critical density ([1]; x1 = 0.2585) of 506 ± 6 kg/m3 and a Critical density ([1]; x1 = 0.4147) of 523 ± 6 kg/m3. The Critical density ([1]; x1 = 0.5954) was 539 ± 6 kg/m3, the Critical density ([1]; x1 = 0.7403) was 558 ± 7 kg/m3 and the Critical density ([1]; x1 = 1) was 580 ± 7 kg/m3.
Work on `FC(OC(F)(F)F)C(F)(F)F` (stereo not drawn) [1,1,1,2-tetrafluoro-2-(trifluoromethoxy)ethane] yielded a Critical density [2] of 580 ± 4 kg/m3, a Critical pressure [2] of 2621 ± 4 kPa and a Critical temperature [2] of 377.26 ± 0.06 K.
With `COC(F)(F)C(F)(F)F` [methyl pentafluoroethyl ether] the Critical density [2] was 491 ± 6 kg/m3, the Critical pressure [2] was 2885 ± 6 kPa and the Critical temperature [2] was 406.82 ± 0.06 K.
Compound `COC(F)(F)C(F)(F)F` [methyl pentafluoroethyl ether] + FC(OC(F)(F)F)C(F)(F)F has a Critical density ([1]; x2 = 0) of 491 ± 6 kg/m3.
